# Biological target: JAK1 (Homo sapiens (Human), UniProt P23458)
# Experiment: Analysis of JAK1 activity inhibition ability (ADP-Glo Kinase Assay)
# Assay type: biochemical
# Conditions: JAK1 enzyme, ADP-Glo luminescence, ATP 250 uM, IRS-itide substrate, 30° C. 40 minutes; read-out: IC50
# Procedure, shortened: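 ADP-Glo luminescence read-out of ADP production, with IC50 taken as the concentration halving JAK1 activity relative to control. Enzyme was incubated 40 min at 30 °C with compound, IRS-itide (40 ng/mL) and ATP (250 uM), concentrations as prepared in pH 7.5 Tris-HCl/MgCl2/BSA/DTT buffer.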
# JAK1, sequence (P23458 whole entry): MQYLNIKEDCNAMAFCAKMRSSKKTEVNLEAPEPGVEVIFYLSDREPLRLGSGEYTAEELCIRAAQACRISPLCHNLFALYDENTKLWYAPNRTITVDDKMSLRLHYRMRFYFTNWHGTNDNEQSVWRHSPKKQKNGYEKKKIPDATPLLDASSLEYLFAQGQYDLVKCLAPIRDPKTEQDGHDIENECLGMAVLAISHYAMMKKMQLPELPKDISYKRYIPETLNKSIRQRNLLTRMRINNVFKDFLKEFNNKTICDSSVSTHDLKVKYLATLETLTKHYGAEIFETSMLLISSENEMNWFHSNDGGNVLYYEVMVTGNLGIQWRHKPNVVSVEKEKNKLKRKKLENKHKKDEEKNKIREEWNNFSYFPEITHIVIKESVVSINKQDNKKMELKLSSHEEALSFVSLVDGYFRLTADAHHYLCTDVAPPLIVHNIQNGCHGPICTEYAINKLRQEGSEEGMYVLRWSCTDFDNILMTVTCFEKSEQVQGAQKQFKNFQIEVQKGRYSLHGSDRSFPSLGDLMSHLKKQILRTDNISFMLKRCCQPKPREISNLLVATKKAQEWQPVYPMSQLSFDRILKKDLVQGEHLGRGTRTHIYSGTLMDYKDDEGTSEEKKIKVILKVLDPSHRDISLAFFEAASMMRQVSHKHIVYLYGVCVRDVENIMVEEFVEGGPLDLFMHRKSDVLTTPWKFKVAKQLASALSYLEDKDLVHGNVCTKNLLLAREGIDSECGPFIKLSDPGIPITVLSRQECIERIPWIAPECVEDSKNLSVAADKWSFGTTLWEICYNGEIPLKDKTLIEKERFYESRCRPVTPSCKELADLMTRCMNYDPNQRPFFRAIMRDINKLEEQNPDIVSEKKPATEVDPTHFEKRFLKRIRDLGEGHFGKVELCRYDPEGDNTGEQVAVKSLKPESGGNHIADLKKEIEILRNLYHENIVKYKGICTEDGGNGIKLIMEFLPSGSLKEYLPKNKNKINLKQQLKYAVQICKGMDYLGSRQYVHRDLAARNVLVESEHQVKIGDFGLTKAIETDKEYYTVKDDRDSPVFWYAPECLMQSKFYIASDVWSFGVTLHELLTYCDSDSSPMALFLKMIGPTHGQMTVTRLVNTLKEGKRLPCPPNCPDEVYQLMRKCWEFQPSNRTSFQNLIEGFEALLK
row,IC50 [µM],Structure (SMILES)
1,> 0.2,"N#CCCC(=O)N1C[C@H]2C[C@@H]1CN2c1cc(NC(=O)C2CC2)nc2[nH]ccc12 [Example 682, N-(4-((1R,4R)-5-(3-cyanopropanoyl)-2,5-diazabicyclo[2.2.1]heptan-2-yl)-1H-pyrrolo[2,3-b]pyridin-6-yl)cyclopropanecarboxamide]"
2,0.02 to 0.2,"N#CC1(CC(=O)N2CCN(c3cc(NC(=O)C4CC4)nc4[nH]ccc34)CC2)CC1 [Example 683, N-(4-(4-(2-(1-cyanocyclopropyl)acetyl)piperazin-1-yl)-1H-pyrrolo[2,3-b]pyridin-6-yl)cyclopropanecarboxamide]"
3,> 0.2,"N#CCCC(=O)N1CCN(c2cc(NC(=O)C3CC3)nc3[nH]ccc23)CC1 [Example 684, N-(4-(4-(3-cyanopropanoyl)piperazin-1-yl)-1H-pyrrolo[2,3-b]pyridin-6-yl)cyclopropanecarboxamide]"
4,> 0.2,"N#CCC(=O)N1CCN(c2nc(NC(=O)C3CC3)nc3[nH]ccc23)CC1 [Example 687, N-(4-(4-(2-cyanoacetyl)piperazin-1-yl)-7H-pyrrolo[2,3-d]pyrimidin-2-yl)cyclopropanecarboxamide]"
5,0.02 to 0.2,"N#CCC(=O)N1C2CCC1CN(c1nc(NC(=O)C3CC3)nc3[nH]ccc13)C2 [Example 688, (N-(4-(8-(2-cyanoacetyl)-3,8-diazabicyclo[3.2.1]octan-3-yl)-7H-pyrrolo[2,3-d]pyrimidin-2-yl)cyclopropanecarboxamide)]"
6,> 0.2,"O=C(Nc1cc(N2CCN(C(=O)NCC(F)(F)F)CC2)c2cc[nH]c2n1)C1CC1 [Example 690, 4-(6-(cyclopropanecarboxamido)-1H-pyrrolo[2,3-b]pyridin-4-yl)-N-(2,2,2-trifluoroethyl)piperazine-1-carboxamide]"
7,> 0.2,"CC(C)(C)OC(=O)N1CCN(c2cc(NC(=O)C3CC3)nc3[nH]ccc23)CC1 [Example 692, tert-butyl 4-(6-(cyclopropanecarboxamido)-1H-pyrrolo[2,3-b]pyridine-4-yl)piperazin-1-carboxylate]"
8,> 0.2,"CC(C)(C)OC(=O)N[C@H]1CCN(c2nc(NC(=O)C3CC3)nc3[nH]ccc23)C1 [Example 696, tert-butyl (S)-(1-(2-(cyclopropanecarboxamido)-7H-pyrrolo[2,3-d]pyrimidin-4-yl)pyrrolidin-3-yl)carbamate]"
9,> 0.2,"CC(C)(C)OC(=O)N[C@H]1CCN(c2cc(NC(=O)C3CC3)nc3[nH]ccc23)C1 [Example 697, tert-butyl (S)-(1-(6-(cyclopropanecarboxamido)-1H-pyrrolo[2,3-b]pyridin-4-yl)pyrrolidin-3-yl)carbamate]"
10,0.02 to 0.2,"O=C(Nc1cc(N2CCN(Cc3ccns3)CC2)c2cc[nH]c2n1)C1CC1 [Example 698, N-(4-(4-(isothiazol-5-ylmethyl)piperazin-1-yl)-1H-pyrrolo[2,3-b]pyridin-6-yl)cyclopropanecarboxamide]"
11,0.02 to 0.2,"O=C(Nc1cc(N2CCN(C[C@@H]3CC3(F)F)CC2)c2cc[nH]c2n1)C1CC1 [Example 699, (S)—N-(4-(4-((2,2-difluorocyclopropyl)methyl)piperazin-1-yl)-1H-pyrrolo[2,3-b]pyridin-6-yl)cyclopropanecarboxamide]"
12,> 0.2,"CCS(=O)(=O)N1CC(CC#N)(N2CCN(c3cc(NC(=O)C4CC4)nc4[nH]ccc34)CC2)C1 [Example 700, N-(4-(4-(3-(cyanomethyl)-1-(ethylsulfonyl)azetidin-3-yl)piperazin-1-yl)-1H-pyrrolo[2,3-b]pyridin-6-yl)cyclopropanecarboxamide]"
13,> 0.2,"O=C(Nc1cc(N2CCN(CC(=O)N3CCS(=O)(=O)CC3)CC2)c2cc[nH]c2n1)C1CC1 [Example 702, N-(4-(4-(2-(1,1-dioxidothiomorpholino)-2-oxoethyl)piperazin-1-yl)-1H-pyrrolo[2,3-b]pyridin-6-yl)cyclopropanecarboxamide]"
14,> 0.2,"C[C@@H]1CN(C(=O)CC#N)CC=C1c1cc(N)nc2[nH]ccc12 [Example 705, (S)-3-(4-(6-amino-1H-pyrrolo[2,3-b]pyridin-4-yl)-3-methyl-3,6-dihydropyridin-1 (2H)-yl)-3-oxopropanenitrile]"
15,0.02 to 0.2,"CCS(=O)(=O)Nc1ccc(-c2cc(NC(C)=O)nc3[nH]ccc23)cc1F [Example 710, N-(4-(4-(ethylsulfonamido)-3-fluorophenyl)-1H-pyrrolo[2,3-b]pyridin-6-yl)acetamide]"
16,> 0.2,"CCS(=O)(=O)Nc1ccc(-c2cc(NC(=O)C(C)C)nc3[nH]ccc23)cc1F [Example 711, N-(4-(4-(ethylsulfonamido)-3-fluorophenyl)-1H-pyrrolo[2,3-b]pyridin-6-yl)isobutyramide]"
17,> 0.2,"CCCC(=O)Nc1cc(-c2ccc(NS(=O)(=O)CC)c(F)c2)c2cc[nH]c2n1 [Example 712, N-(4-(4-(ethylsulfonamido)-3-fluorophenyl)-1H-pyrrolo[2,3-b]pyridin-6-yl)butyramide]"
18,> 0.2,"CCS(=O)(=O)Nc1ccc(-c2cc(NCC3CC3)nc3[nH]ccc23)cc1F [Example 713, N-(4-(6-((cyclopropylmethyl)amino)-1H-pyrrolo[2,3-b]pyridin-4-yl)-2-fluorophenyl)ethanesulfonamide]"
19,> 0.2,"CCS(=O)(=O)Nc1ccc(-c2cc(N/C(=N\C)C3CC3)nc3[nH]ccc23)cc1 [Example 714, (Z)—N-(4-(4-(ethylsulfonamido)phenyl)-1H-pyrrolo[2,3-b]pyridin-6-yl)-N′-methylcyclopropanecarboximidamide]"
20,0.02 to 0.2,"CCS(=O)(=O)Nc1ccc(-c2cc(NC(=S)C3CC3)nc3[nH]ccc23)cc1 [Example 715, N-(4-(4-(ethylsulfonamido)phenyl)-1H-pyrrolo[2,3-b]pyridin-6-yl)cyclopropanecarbothioamide]"
21,> 0.2,"CCS(=O)(=O)Nc1ccc(-c2cc(NS(=O)(=O)C3CC3)nc3[nH]ccc23)cc1F [Example 716, N-(4-(4-(ethylsulfonamido)-3-fluorophenyl)-1H-pyrrolo[2,3-b]pyridin-6-yl)cyclopropanesulfonamide]"
22,0.02 to 0.2,"O=C(Nc1cc(-c2ccc(CN3CCS(=O)(=O)CC3)cc2)c2cc[nH]c2n1)NC1CC1 [Example 717, 1-cyclopropyl-3-(4-(4-((1,1-dioxidothiomorpholino)methyl)phenyl)-1H-pyrrolo[2,3-b]pyridin-6-yl)urea]"
23,> 0.2,"CN(C)c1nc(-c2ccc(NS(=O)(=O)c3ccc(F)c(F)c3)cc2)c2cc[nH]c2n1 [Example 718, N-(4-(2-(dimethylamino)-7H-pyrrolo[2,3-d]pyrimidin-4-yl)phenyl)-3,4-difluorobenzenesulfonamide]"

row,Structure (SMILES),IC50 [µM]
1,"N#CCC(=O)N1C2CC1CN(c1cc(NC(=O)C3CC3)nc3[nH]ccc13)C2 [Example 685, N-(4-(6-(2-cyanoacetyl)-3,6-diazabicyclo[3.1.1]heptan-3-yl)-1H-pyrrolo[2,3-b]pyridin-6-yl)cyclopropanecarboxamide]",> 0.2
2,"N#Cc1cccc(C(=O)N2C3CCC2CN(c2cc(NC(=O)C4CC4)nc4[nH]ccc24)C3)c1 [Example 686, N-(4-(8-(3-cyanobenzoyl)-3,8-diazabicyclo[3.2.1]octan-3-yl)-1H-pyrrolo[2,3-b]pyridin-6-yl)cyclopropanecarboxamide]",< 0.02
3,"N#CC1(CC(=O)N2C3CCC2CN(c2nc(NC(=O)C4CC4)nc4[nH]ccc24)C3)CC1 [Example 689, N-(4-(8-(2-(1-cyanocyclopropyl)acetyl)-3,8-diazabicyclo[3.2.1]octan-3-yl)-7H-pyrrolo[2,3-d]pyrimidin-2-yl)cyclopropanecarboxamide]",0.02 to 0.2
4,"O=C(Nc1cc(N2CC3CCC(C2)N3C(=O)NCC(F)(F)F)c2cc[nH]c2n1)C1CC1 [Example 691, 3-(6-(cyclopropanecarboxamido)-1H-pyrrolo[2,3-b]pyridin-4-yl)-N-(2,2,2-trifluoroethyl)-3,8-diazabicyclo[3.2.1]octane-8-carboxamide]",< 0.02
5,"CC(C)(C)OC(=O)N1C2CCC1CN(c1cc(NC(=O)C3CC3)nc3[nH]ccc13)C2 [Example 693, tert-butyl 3-(6-(cyclopropanecarboxamido)-1H-pyrrolo[2,3-b]pyridin-4-yl)-3,8-diazabicyclo[3.2.1]octane-8-carboxylate]",0.02 to 0.2
6,"CC(C)(C)OC(=O)N1CC2CCC(C1)N2c1cc(NC(=O)C2CC2)nc2[nH]ccc12 [Example 694, tert-butyl 8-(6-(cyclopropanecarboxamido)-1H-pyrrolo[2,3-b]pyridin-4-yl)-3,8-diazabicyclo[3.2.1]octane-3-carboxylate]",> 0.2
7,"CC(C)(C)OC(=O)N1C2CCC1CN(c1nc(NC(=O)C3CC3)nc3[nH]ccc13)C2 [Example 695, tert-butyl 3-(2-(cyclopropanecarboxamido)-7H-pyrrolo[2,3-d]pyrimidin-4-yl)-3,8-diazabicyclo[3.2.1]octane-8-carboxylate]",0.02 to 0.2
8,"CCS(=O)(=O)N1CC(CC#N)(N2C3CCC2CN(c2cc(NC(=O)C4CC4)nc4[nH]ccc24)C3)C1 [Example 701, N-(4-(8-(3-(cyanomethyl)-1-(ethylsulfonyl)azetidin-3-yl)-3,8-diazabicyclo[3.2.1]octan-3-yl)-1H-pyrrolo[2,3-b]pyridin-6-yl)cyclopropanecarboxamide]",> 0.2
9,"N#C[C@H]1CCCN1C(=O)CN1C2CCC1CN(c1cc(NC(=O)C3CC3)nc3[nH]ccc13)C2 [Example 703, N-(4-(8-(2-((R)-2-cyanopyrrolidin-1-yl)-2-oxoethyl)-3,8-diazabicyclo[3.2.1]octan-3-yl)-1H-pyrrolo[2,3-b]pyridin-6-yl)cyclopropanecarboxamide]",> 0.2
10,"O=C(Nc1nc(N2CC3CCC(C2)N3CC(=O)N2CCS(=O)(=O)CC2)c2cc[nH]c2n1)C1CC1 [Example 704, N-(4-(8-(2-(1,1-dioxidothiomorpholino)-2-oxoethyl)-3,8-diazabicyclo[3.2.1]octan-3-yl)-7H-pyrrolo[2,3-d]pyrimidin-2-yl)cyclopropanecarboxamide]",> 0.2
